Assay results published in patent US10953027B2, “Active agents and methods of their use for the treatment of metabolic disorders and nonalcoholic fatty liver disease” (Flagship Pioneering Innovations V, Inc., priority 2018, dated 2021).

How the values were obtained:
[1] = Assay 1. Stability in Simulated Gastric Fluid (SGF); type: in vitro ADME; conditions: 1 μM, 37° C., SGF pH 1.6 with pepsin
Experimental: Assay 1. Stability of acylated active agents in Simulated Gastric Fluid (SGF). This assay was used to assess the stability of an acylated active agent in a stomach.
Medium was prepared by dissolving 2 g of sodium chloride in 0.6 L of ultrapure water (MilliQ®, Millipore Sigma, Darmstadt, Germany). The pH was adjusted to 1.6 with 1N hydrochloric acid, and the volume was then adjusted to 1 L with purified water.
60 mg FaSSIF powder (Biorelevant™, London, UK) were dissolved in 500 mL buffer (above). Pepsin was added (0.1 mg/mL) (Millipore Sigma, Darmstadt, Germany), and the solution was stirred. The resulting SGF media were used fresh for each experiment.
Test compounds were dissolved in DMSO stock to 1 mM. An aliquot of the DMSO stock solution was removed and diluted in the SGF Media in 15 mL falcon tubes to generate a compound concentration of 1 μM. A 1 mL aliquot was immediately removed and diluted once with 1 volume of acetonitrile for T0 timepoint. The mixture was sealed and mixed at 37° C. in an incubator. Aliquots (1 mL) were removed at regular intervals and immediately quenched by the addition of 1 volume of acetonitrile. The resulting samples were analyzed by LC/MS to determine degradation rates in SGF.

[2] = Assay 2. Stability in Simulated Intestinal Fluid (SIF); type: in vitro ADME; conditions: 1 μM, 37° C., SIF pH 6.7 with pancreatin
Experimental: Assay 2. Stability of acylated active agents in Simulated Intestinal Fluid (SIF). This assay was used to assess the stability of an acylated active agent in a small intestine.
Phosphate buffer was prepared by dissolving 0.42 g of sodium hydroxide pellets and 3.95 g of monobasic sodium phosphate monohydrate and 6.19 g of sodium chloride in ultrapure water (MilliQ®, Millipore Sigma, Darmstadt, Germany). The pH was adjusted to 6.7 using aq. HCl and aq. NaOH, as necessary, and the solution was diluted with ultrapure water to produce 1 L of the pH 6.7 buffer.
112 mg FaSSIF powder (Biorelevant™, London, UK) was dissolved in 50 mL of the pH 6.7 buffer. 2 to 3 mL of the resulting solution were then added to 500 mg pancreatin (Millipore Sigma, Darmstadt, Germany). The resulting mixture was agitated by finger tapping the vessel containing the mixture until milky suspension formed. At this time, the remainder of the 50 mL FaSSiF/pH 6.7 buffer solution was added. The resulting suspension was flipped upside down 10 times to produce SIF, which was used fresh.
Test compounds were dissolved in DMSO stock to 1 mM. An aliquot of the DMSO stock solution was removed and diluted in the SIF media in 15 mL falcon tubes to produce a mixture with a tested compound concentration of 1 μM. A 1 mL aliquot was immediately removed and diluted once with 1 volume of acetonitrile for T0 timepoint. The mixture was sealed and agitated at 37° C. in an incubator. Aliquots (1 mL) were removed at regular intervals and immediately quenched by the addition of 1 volume of acetonitrile. The resulting samples were analyzed by LC/MS to determine degradation rates.

CCCC(=O)Oc1ccc(/C=C/c2cc(OC(=O)CCC)cc(OC(=O)CCC)c2)cc1 [Compound 1, [4-[(E)-2-[3,5-di(butanoyloxy)phenyl]vinyl]phenyl] butanoate]
Assay 1 (SGF) (% Remaining @ 1 hours) [1]: C (C: >75% of the tested compound remaining) | Assay 2 (SIF) (% @ Remaining 4 hours) [2]: B (B: 25-75% of the tested compound remaining)

O=C(CCCc1ccccc1)Oc1ccc(/C=C/c2cc(OC(=O)CCCc3ccccc3)cc(OC(=O)CCCc3ccccc3)c2)cc1 [Compound 2, [4-[(E)-2-[3,5-bis(4-phenylbutanoyloxy)phenyl]vinyl]phenyl] 4-phenylbutanoate]
Assay 2 (SIF) (% @ Remaining 4 hours) [2]: C (C: >75% of the tested compound remaining)

CCCCCCCC(=O)Oc1ccc(/C=C/c2cc(OC(=O)CCCCCCC)cc(OC(=O)CCCCCCC)c2)cc1 [Compound 11, [4-[(E)-2-[3,5-di(octanoyloxy)phenyl]vinyl]phenyl] octanoate]
Assay 1 (SGF) (% Remaining @ 1 hours) [1]: C (C: >75% of the tested compound remaining)

CCCCCCCCCC(=O)Oc1ccc(/C=C/c2cc(OC(=O)CCCCCCCCC)cc(OC(=O)CCCCCCCCC)c2)cc1 [Compound 12, [4-[(E)-2-[3,5-di(decanoyloxy)phenyl]vinyl]phenyl] decanoate]
Assay 1 (SGF) (% Remaining @ 1 hours) [1]: C (C: >75% of the tested compound remaining)

CCCC(=O)O[C@H](C)CC(=O)Oc1ccc(/C=C/c2cc(OC(=O)C[C@@H](C)OC(=O)CCC)cc(OC(=O)C[C@@H](C)OC(=O)CCC)c2)cc1 [Compound 13, [4-[(E)-2-[3,5-bis[[(3R)-3-butanoyloxybutanoyl]oxy]phenyl]vinyl]phenyl] (3R)-3-butanoyloxy-butanoate]
Assay 1 (SGF) (% Remaining @ 1 hours) [1]: C (C: >75% of the tested compound remaining) | Assay 2 (SIF) (% @ Remaining 4 hours) [2]: B (B: 25-75% of the tested compound remaining)

CC(=O)Oc1ccc(/C=C/c2cc(OC(C)=O)cc(OC(C)=O)c2)cc1 [Compound 18, [4-[(E)-2-(3,5-diacetoxyphenyl)vinyl]phenyl] acetate]
Assay 1 (SGF) (% Remaining @ 1 hours) [1]: C (C: >75% of the tested compound remaining) | Assay 2 (SIF) (% @ Remaining 4 hours) [2]: C (C: >75% of the tested compound remaining)

CCCC(=O)OC[C@@H](OC(=O)CCC)[C@@H](OC(=O)CCC)[C@H](OC(=O)CCC)[C@@H](OC(=O)CCC)C(=O)Oc1ccc(/C=C/c2cc(OC(=O)[C@H](OC(=O)CCC)[C@@H](OC(=O)CCC)[C@H](OC(=O)CCC)[C@@H](COC(=O)CCC)OC(=O)CCC)cc(OC(=O)[C@H](OC(=O)CCC)[C@@H](OC(=O)CCC)[C@H](OC(=O)CCC)[C@@H](COC(=O)CCC)OC(=O)CCC)c2)cc1 [Compound 19, [4-[(E)-2-[3,5-bis[[(2R,3S,4R,5R)-2,3,4,5,6-penta(butanoyloxy)hexanoyl]oxy]phenyl]vinyl]phenyl] (2R,3S,4R,5R)-2,3,4,5,6-penta(butanoyloxy)hexanoate]
Assay 1 (SGF) (% Remaining @ 1 hours) [1]: B (B: 25-75% of the tested compound remaining) | Assay 2 (SIF) (% @ Remaining 4 hours) [2]: B (B: 25-75% of the tested compound remaining)

CCCC(=O)O[C@@H]1[C@@H](OC(=O)CCC)[C@@H](Oc2ccc(N)cc2C(=O)O)OC[C@@H]1OC(=O)CCC [Compound 42, 5-amino-2-[(2R,3R,4S,5S)-3,4,5-tri(butanoyloxy)tetrahydropyran-2-yl]oxy-benzoic Acid]
Assay 2 (SIF) (% @ Remaining 4 hours) [2]: C (C: >75% of the tested compound remaining)

CCC(=O)O[C@@H]1[C@@H](OC(=O)CC)[C@@H](OC(=O)CCc2c[nH]c3ccccc23)OC[C@H]1OC(=O)CC [Compound 108, (2R,3R,4S,5R)-3,4,5-tris(propanoyloxy)oxan-2-yl 3-(1H-indol-3-yl)propanoate]
Assay 1 (SGF) (% Remaining @ 1 hours) [1]: C (C: >75% of the tested compound remaining)

CCC(=O)O[C@H]1[C@H](OC(=O)CC)[C@H](OC(=O)/C=C/c2c[nH]c3ccccc23)O[C@@H](C)[C@H]1OC(=O)CC [Compound 148, (2S,3S,4R,5R,6S)-6-methyl-3,4,5-tris(propanoyloxy)oxan-2-yl (2E)-3-(1H-indol-3-yl)prop-2-enoate]
Assay 1 (SGF) (% Remaining @ 1 hours) [1]: C (C: >75% of the tested compound remaining)

CCCC(=O)O[C@H]1O[C@@H](C)[C@H](OC(=O)CCC)[C@@H](OC(=O)CCC)[C@H]1OC(=O)CCC [Compound 151, (2R,3R,4R,5S,6S)-3,4,5-tris(butanoyloxy)-6-methyloxan-2-yl Butanoate]
Assay 2 (SIF) (% @ Remaining 4 hours) [2]: A (A: <25% of the tested compound remaining)

CCCC(=O)O[C@@H]1O[C@@H](C)[C@H](OC(=O)CCC)[C@@H](OC(=O)CCC)[C@H]1OC(=O)CCC [Compound 152, (2S,3R,4R,5S,6S)-3,4,5-tris(butanoyloxy)-6-methyloxan-2-yl Butanoate]
Assay 2 (SIF) (% @ Remaining 4 hours) [2]: A (A: <25% of the tested compound remaining)

C[C@@H]1O[C@H](OC(=O)Cc2c[nH]c3ccccc23)[C@H](OC(=O)Cc2c[nH]c3ccccc23)[C@H](OC(=O)Cc2c[nH]c3ccccc23)[C@H]1OC(=O)Cc1c[nH]c2ccccc12 [Compound 153, (2R,3R,4R,5S,6S)-3,4,5-tris({[2-(1H-indol-3-yl)acetyl]oxy})-6-methyloxan-2-yl 2-(1H-indol-3-yl)acetate]
Assay 2 (SIF) (% @ Remaining 4 hours) [2]: A (A: <25% of the tested compound remaining)

C[C@@H]1O[C@@H](OC(=O)Cc2c[nH]c3ccccc23)[C@H](OC(=O)Cc2c[nH]c3ccccc23)[C@H](OC(=O)Cc2c[nH]c3ccccc23)[C@H]1OC(=O)Cc1c[nH]c2ccccc12 [Compound 154, (2S,3R,4R,5S,6S)-3,4,5-tris({[2-(1H-indol-3-yl)acetyl]oxy})-6-methyloxan-2-yl 2-(1H-indol-3-yl)acetate]
Assay 2 (SIF) (% @ Remaining 4 hours) [2]: A (A: <25% of the tested compound remaining)

CCC(=O)O[C@@H]1OC[C@H](OC(=O)CC)[C@H](OC(=O)CC)[C@H]1OC(=O)CC [Compound 160, (2S,3R,4S,5S)-3,4,5-tris(propanoyloxy)oxan-2-yl Propanoate]
Assay 1 (SGF) (% Remaining @ 1 hours) [1]: C (C: >75% of the tested compound remaining)

CCCC(=O)OCC1(OC(=O)CCC)OC[C@@H](OC(=O)CCC)[C@H](OC(=O)CCC)[C@@H]1OC(=O)CCC (stereo partly drawn) [Compound 163, [(3S,4S,5R)-2,3,4,5-tetrakis(butanoyloxy)oxan-2-yl]methyl Butanoate]
Assay 1 (SGF) (% Remaining @ 1 hours) [1]: C (C: >75% of the tested compound remaining)

O=C(Cc1c[nH]c2ccccc12)O[C@@H]1OC[C@@H](OC(=O)Cc2c[nH]c3ccccc23)[C@@H](OC(=O)Cc2c[nH]c3ccccc23)[C@H]1OC(=O)Cc1c[nH]c2ccccc12 [Compound 172, (2S,3R,4R,5R)-3,4,5-tris({[2-(1H-indol-3-yl)acetyl]oxy})oxan-2-yl 2-(1H-indol-3-yl)acetate]
Assay 2 (SIF) (% @ Remaining 4 hours) [2]: C (C: >75% of the tested compound remaining)

CCCC(=O)O[C@H]1OC[C@@H](OC(=O)CCC)[C@H](OC(=O)CCC)[C@H]1OC(=O)CCC [Compound 191, (2R,3R,4S,5R)-3,4,5-tris(butanoyloxy)oxan-2-yl Butanoate]
Assay 2 (SIF) (% @ Remaining 4 hours) [2]: C (C: >75% of the tested compound remaining)

CCCC(=O)O[C@@H]1[C@@H](OC(=O)CCC)[C@@H](Oc2ccc(N)cc2C(=O)O)OC[C@H]1OC(=O)CCC [Compound 204, 5-amino-2-[(2R,3R,4S,5R)-3,4,5-tri(butanoyloxy)tetrahydropyran-2-yl]oxy-benzoic Acid]
Assay 2 (SIF) (% @ Remaining 4 hours) [2]: B (B: 25-75% of the tested compound remaining)

CCCC(=O)Nc1ccc(O[C@@H]2OC[C@@H](OC(=O)CCC)[C@H](OC(=O)CCC)[C@H]2OC(=O)CCC)c(C(=O)O)c1 [Compound 229, 5-butanamido-2-{[(2S,3R,4S,5R)-3,4,5-tris(butanoyloxy)oxan-2-yl]oxy}benzoic Acid]
Assay 2 (SIF) (% @ Remaining 4 hours) [2]: A (A: <25% of the tested compound remaining)

C[C@@H]1CCO[C@H](C(=O)Oc2ccc(/C=C/c3cc(O)cc(OC(=O)[C@H]4OCC[C@@H](C)O4)c3)cc2)O1 [Compound 256, 4-[(1E)-2-{3-hydroxy-5-[(2S,4R)-4-methyl-1,3-dioxane-2-carbonyloxy]phenyl}ethenyl]phenyl (2S,4R)-4-methyl-1,3-dioxane-2-carboxylate]
Assay 1 (SGF) (% Remaining @ 1 hours) [1]: A (A: <25% of the tested compound remaining)

C[C@@H]1CCOC(C(=O)Oc2ccc(/C=C/c3cc(OC(=O)C4OCC[C@@H](C)O4)cc(OC(=O)C4OCC[C@@H](C)O4)c3)cc2)O1 (stereo partly drawn) [Compound 258, 3-[(4R)-4-methyl-1,3-dioxane-2-carbonyloxy]-5-[(1E)-2-{4-[(4R)-4-methyl-1,3-dioxane-2-carbonyloxy]phenyl}ethenyl]phenyl (4R)-4-methyl-1,3-dioxane-2-carboxylate]
Assay 1 (SGF) (% Remaining @ 1 hours) [1]: A (A: <25% of the tested compound remaining)
